Article PMC7413308 (ARKIVOC : free online journal of organic chemistry, 2018)
Several values for one entry are separate records, joined by “and”; a condition that tells them apart may be missing. Equal values may be shown once.

What was measured:
[1] = In vitro microsomal stability of analogs; assay type: in vitro ADME, mouse; settings: for half-life / remaining at 1 h / remaining at 2 h: mouse, liver microsomes; for remaining at 1 h / remaining at 2 h: Microsomal stability (MLM) % remaining
[2] = In vitro microsomal stability of analogs; assay type: in vitro ADME, human; settings: for half-life / remaining at 1 h / remaining at 2 h: human, liver microsomes; for remaining at 1 h / remaining at 2 h: Microsomal stability (HLM) % remaining
[3] = tested on: HEK293 (kidney) cell line; test: In vitro cytotoxicity, cell viability; assay type: cell-based; settings: 48 h incubation, Cell-Titer Glo cell viability
[4] = tested on: HEPG2 (liver) cell line; test: In vitro cytotoxicity, cell viability; assay type: cell-based; settings: 48 h incubation, Cell-Titer Glo cell viability
[5] = tested on: mice; test: Sensorimotor coordination on rotating rod after oral gavage; assay type: in vivo; settings: oral gavage 40 mg/kg, rotating rod max 3 minutes, three time-points
[6] = Procognitive assay; assay type: in vivo; settings: data only preliminary
[7] = footnote d: assessed at 1-hour incubation time
[8] = footnote a: compound not detected after 10 minutes

SMILES | half-life [1] [h] | half-life [2] [h] | HEK293 LD50 [3] | HEPG2 LD50 [4] [µM] | remaining at 2 h ([1]; after 2 hr) [%] | remaining at 2 h ([2]; after 2 hr) [%] | further results
C#Cc1ccc2c(c1)C(c1ccccc1F)=N[C@@H](C)c1c(C(=O)OC(C)C)ncn1-2 [5c, (S)-Isopropyl-8-ethynyl-6-(2-fluorophenyl)-4-methyl-4H-benzo[f]imidazo[1,5-a][1,4]diazepine-3-carboxylate] | 3.78 ± 0.267 | 0.95 ± 0.0333 | 48.9 ± 4.4 µM | 39.9 ± 2.8 |  |  | remaining at 1 h [1, 7]: 83 ± 0.1%; remaining at 1 h [2, 7]: 47 ± 0.2%
C#Cc1ccc2c(c1)C(c1ccccc1F)=N[C@@H](C)c1c(C(=O)OCC(F)(F)F)ncn1-2 [5f, (S)-2,2,2-Trifluoroethyl-8-ethynyl-6-(2-fluorophenyl)-4-methyl-4H-benzo[f]imidazo[1,5-a][1,4]diazepine-3-carboxylate] | < 0.0833 | < 0.0833 | 138 µM and 138.1 ± 31.8 µM | >400 |  |  | 
C#Cc1ccc2c(c1)C(c1ccccc1F)=N[C@@H](C)c1c(C(=O)OC(C)(C)C)ncn1-2 [5d, (S)-tert-Butyl-8-ethynyl-6-(2-fluorophenyl)-4-methyl-4H-benzo[f]imidazo[1,5-a][1,4]diazepine-3-carboxylate] | 3.27 ± 0.333 | 8.57 ± 1.92 |  | 21.4 ± 1.9 |  |  | remaining at 1 h [1, 7]: 78 ± 0.2%; remaining at 1 h [2, 7]: 89 ± 0.2%
C#Cc1ccc2c(c1)C(c1ccccc1F)=N[C@@H](C)c1c(C#N)ncn1-2 [compound 10, (S)-8-Ethynyl-6-(2-fluorophenyl)-4-methyl-4H-benzo[f]imidazo[1,5-a][1,4]diazepine-3-carbonitrile] | 0.967 ± 0.1 | 0.683 ± 0.0833 | 81.6 ± 6.7 µM | 57.1 ± 5.6 | 16 | 9 ± 0.3 | Microsomal stability (MLM) % remaining ([1]; after 2 hr): 17.0 ± 0.6%
CCOC(=O)c1ncn2c1[C@H](C)N=C(c1ccccc1F)c1cc(C3CC3)ccc1-2 [compound 3, (S)-Ethyl-8-cyclopropyl-6-(2-fluorophenyl)-4-methyl-4H-benzo[f]imidazo[1,5-a][1,4]diazepine-3-carboxylate] | 0.767 ± 0.05 | < 0.0833 | 58.0 ± 6.0 µM | 87.0 ± 6.6 | 16 ± 0.4 |  | 
C#Cc1ccc2c(c1)C(c1ccccc1F)=N[C@@H](C)c1c(C(=O)SCC)ncn1-2 [compound 7, (S)-S-Ethyl-8-ethynyl-6-(2-fluorophenyl)-4-methyl-4H-benzo[f]imidazo[1,5-a][1,4]diazepine-3-carbothioate] |  |  | 20.5 ± 4.7 µM | 30.2 ± 9.7 |  |  | Microsomal stability (MLM) % remaining ([1]; after 2 hr): 9.0 ± 0.5%; Microsomal stability (MLM) Half-life ([1]; after 2 hr): 46 ± 6 min; Microsomal stability (HLM) % remaining ([2]; after 2 hr): 28.0 ± 0.3%; Microsomal stability (HLM) Half-life ([2]; after 2 hr): 101 ± 19 min
C#Cc1ccc2c(c1)C(c1ccccc1F)=N[C@@H](C)c1c(C(=O)NC(C)C)ncn1-2 [8d, (S)-8-Ethynyl-6-(2-fluorophenyl)-N-isopropyl-4-methyl-4H-benzo[f]imidazo[1,5-a][1,4]diazepine-3-carboxa-mide] |  |  | 80.2 ± 11.1 µM | 56.9 ± 4.8 |  |  | Microsomal stability (MLM) % remaining ([1]; after 2 hr): 75.0 ± 0.3%; Microsomal stability (HLM) % remaining ([2]; after 2 hr): 38.0 ± 0.5%; Microsomal stability (HLM) Half-life ([2]; after 2 hr): 107 ± 10 min; Effect on sensorimotor coordination (motor impairment, sedation/ataxia) [5]: did not show any motor impairment
C#Cc1ccc2c(c1)C(c1ccccc1F)=N[C@@H](C)c1c(C(=O)OC(C)(C)CC)ncn1-2 [5e, (S)-tert-Pentyl-8-ethynyl-6-(2-fluorophenyl)-4-methyl-4H-benzo[f]imidazo[1,5-a][1,4]diazepine-3-carboxylate] |  |  | 17.2 ± 1.6 µM | 17.1 ± 1.4 |  |  | 
C#Cc1ccc2c(c1)C(c1ccccc1F)=N[C@@H](C)c1c(C(=O)NC3CC3)ncn1-2 [8c, (S)-N-Cyclopropyl-8-ethynyl-6-(2-fluorophenyl)-4-methyl-4H-benzo[f]imidazo[1,5-a][1,4]diazepine-3-carbox-amide] |  |  | 63.8 ± 3.0 µM | 93.5 ± 5.7 |  |  | Microsomal stability (MLM) % remaining [1, 7]: 72.0 ± 0.3^d %; Microsomal stability (MLM) Half-life [1, 7]: 320 ± 34^d min; Microsomal stability (HLM) % remaining [2, 7]: 89.0 ± 0.4^d %; Microsomal stability (HLM) Half-life [2, 7]: 1625 ± 803^d min
C#Cc1ccc2c(c1)C(c1ccccc1F)=N[C@@H](C)c1c(C(=O)OC)ncn1-2 [5a, (S)-Methyl-8-ethynyl-6-(2-fluorophenyl)-4-methyl-4H-benzo[f]imidazo[1,5-a][1,4]diazepine-3-carboxylate] | 3.6 ± 0.467 | 1.98 ± 0.35 | 68.2 ± 4.3 µM |  | 62 ± 0.5 |  | remaining at 1 h [2, 7]: 43 ± 0.4%
C#Cc1ccc2c(c1)C(c1ccccc1F)=N[C@@H](C)c1c(C(=O)OCCC)ncn1-2 [5b, (S)-Propyl-8-ethynyl-6-(2-fluorophenyl)-4-methyl-4H-benzo[f]imidazo[1,5-a][1,4]diazepine-3-carboxylate] | 0.4 | < 0.0833 | 53.2 ± 4.4 µM | 56.3 ± 4.0 |  |  | remaining at 1 h [1, 7]: 12 ± 0.2%
C#Cc1ccc2c(c1)C(c1ccccc1F)=N[C@@H](C)c1c(C(=O)NC(C)(C)C)ncn1-2 [8e, (S)-N-(tert-Butyl)-8-ethynyl-6-(2-fluorophenyl)-4-methyl-4H-benzo[f]imidazo[1,5-a][1,4]diazepine-3-carbox-amide] |  |  | 33.6 ± 3.0 µM | 43.4 ± 4.0 |  |  | Microsomal stability (MLM) % remaining ([1]; after 2 hr): 52.0 ± 0.3%; Microsomal stability (MLM) Half-life ([1]; after 2 hr): 142 ± 9 min; Microsomal stability (HLM) % remaining ([2]; after 2 hr): 63.0 ± 0.3%; Microsomal stability (HLM) Half-life ([2]; after 2 hr): 205 ± 14 min; Effect on sensorimotor coordination (motor impairment, sedation/ataxia) [5]: did not show any motor impairment
C#Cc1ccc2c(c1)C(c1ccccc1F)=N[C@@H](C)c1c(-c3nc(C)no3)ncn1-2 [9a, (S)-5-(8-Ethynyl-6-(2-fluorophenyl)-4-methyl-4H-benzo[f]imidazo[1,5-a][1,4]diazepin-3-yl)-3-methyl-1,2,4-oxadiazole] |  |  | 69.3 ± 2.3 µM |  | 81 ± 0.4 | 86 ± 0.3 | Effect on sensorimotor coordination (motor impairment, sedation/ataxia) [5]: did not exhibit motor impairments; Procognitive effects in the Y-maze paradigm [6]: procognitive effects (C+)
C#Cc1ccc2c(c1)C(c1ccccc1F)=N[C@@H](C)c1c(C(=O)NC)ncn1-2 [8a, (S)-8-Ethynyl-6-(2-fluorophenyl)-N,4-dimethyl-4H-benzo[f]imidazo[1,5-a][1,4]diazepine-3-carboxamide] |  |  |  |  | 86 ± 0.2 | 92 ± 0.3 | 
C#Cc1ccc2c(c1)C(c1ccccc1F)=N[C@@H](C)c1c(C(=O)NCC)ncn1-2 [8b, (S)-N-Ethyl-8-ethynyl-6-(2-fluorophenyl)-4-methyl-4H-benzo[f]imidazo[1,5-a][1,4]diazepine-3-carboxamide] | 32.7 ± 0.767 | 33 ± 0.833 | 95.5 ± 12.6 µM | 65.4 ± 7.3 | > 92 | > 92 | 
C#Cc1ccc2c(c1)C(c1ccccc1F)=N[C@@H](C)c1c(C(=O)OC3CC3)ncn1-2 [5g, (S)-Cyclopropyl-8-ethynyl-6-(2-fluorophenyl)-4-methyl-4H-benzo[f]imidazo[1,5-a][1,4]diazepine-3-carboxyl-ate] |  |  | 35.8 ± 3.3 µM | 85.1 ± 3.8 |  |  | Microsomal stability (MLM) % remaining [1, 7]: 11.0 ± 0.2^d %; Microsomal stability (MLM) Half-life [1, 7]: 19 ± 2^d min; % remaining in HLM ([2]; after 10, 20, and 30 minutes in HLM): less than 5%; Microsomal stability (HLM) % remaining [2, 8]: < 5.0^a %; Microsomal stability (HLM) Half-life [2, 8]: < 5^a min
COC(=O)c1ncn2c1[C@H](C)N=C(c1ccccc1F)c1cc(Br)ccc1-2 [4a, (S)-Methyl-8-bromo-6-(2-fluorophenyl)-4-methyl-4H-benzo[f]imidazo[1,5-a][1,4]diazepine-3-carboxylate] | 1.93 ± 0.217 | 0.167 ± 0.0167 | 98.5 ± 7.9 µM |  | 41 ± 0.6 |  | remaining at 1 h [2, 7]: 2 ± 0.3%
C#Cc1ccc2c(c1)C(c1ccccc1F)=N[C@@H](C)c1c(C(=O)O)ncn1-2 [compound 6, (S)-8-Ethynyl-6-(2-fluorophenyl)-4-methyl-4H-benzo[f]imidazo[1,5-a][1,4]diazepine-3-carboxylic acid] | 2.32 ± 0.183 | 5.97 ± 0.933 | >400 µM | >400 |  | 74 ± 0.4 | remaining at 1 h [1, 7]: 54 ± 0.3%
C#Cc1ccc2c(c1)C(c1ccccc1F)=N[C@@H](C)c1c(-c3nc(CC)no3)ncn1-2 [9b, (S)-3-Ethyl-5-(8-ethynyl-6-(2-fluorophenyl)-4-methyl-4H-benzo[f]imidazo[1,5-a][1,4]diazepin-3-yl)-1,2,4-oxadiazole] | 3.55 ± 0.283 | 9.38 ± 2.05 | 46.9 ± 6.6 µM | 35.1 ± 3.7 | 63 ± 0.3 | 80 ± 0.4 | Effect on sensorimotor coordination (motor impairment, sedation/ataxia) [5]: exhibited no sensorimotor impairment
C#Cc1ccc2c(c1)C(c1ccccc1F)=N[C@@H](C)c1c(-c3nc(C(C)C)no3)ncn1-2 [9c, (S)-5-(8-Ethynyl-6-(2-fluorophenyl)-4-methyl-4H-benzo[f]imidazo[1,5-a][1,4]diazepin-3-yl)-3-isopropyl-1,2,4-oxadiazole] | 8.33 ± 1.82 | 43.1 ± 32 | 32.5 ± 7.6 µM | 21.7 ± 1.8 | 79 ± 0.5 | 91 ± 0.3 | Effect on sensorimotor coordination (motor impairment, sedation/ataxia) [5]: exhibited no sensorimotor impairment
